Test results published in ChEMBL document CHEMBL5214923, “Contemporary mTOR inhibitor scaffolds to diseases breakdown: A patent review (2015-2021)” (Eur J Med Chem, 2022).

Key:
mTORC1 [1] = target: T1, mTORC1 (Homo sapiens, UniProt P42345+Q8N122+Q9BVC4); experiment: Inhibition of mTORC1 in human MCF7 cells assessed as measuring phosphorylated S6K1 incubated for 2 hrs by AlphaLISA assay; format: cell-based
mTORC2 [2] = target: T2, mTORC2 (Homo sapiens, UniProt P42345+Q6R327+Q9BPZ7+Q9BVC4); experiment: Inhibition of mTORC2 in human MCF7 cells assessed as measuring phosphorylated AKT incubated for 2 hrs by AlphaLISA assay; format: cell-based
[3] = Inhibition of mTORC1 in mouse MEF TSC1-/- cells assessed as measuring phosphorylated S6 level incubated for 2 hrs by Hoechst staining based fluorescence assay; format: cell-based
mTORC1 [4] = target: T1, mTORC1; experiment: Inhibition of mTORC1 (unknown origin); format: protein-complex assay
mTORC2 [5] = target: T2, mTORC2; experiment: Inhibition of mTORC2 (unknown origin); format: protein-complex assay

T2 sequence (Q6R327 whole entry, other chains not shown): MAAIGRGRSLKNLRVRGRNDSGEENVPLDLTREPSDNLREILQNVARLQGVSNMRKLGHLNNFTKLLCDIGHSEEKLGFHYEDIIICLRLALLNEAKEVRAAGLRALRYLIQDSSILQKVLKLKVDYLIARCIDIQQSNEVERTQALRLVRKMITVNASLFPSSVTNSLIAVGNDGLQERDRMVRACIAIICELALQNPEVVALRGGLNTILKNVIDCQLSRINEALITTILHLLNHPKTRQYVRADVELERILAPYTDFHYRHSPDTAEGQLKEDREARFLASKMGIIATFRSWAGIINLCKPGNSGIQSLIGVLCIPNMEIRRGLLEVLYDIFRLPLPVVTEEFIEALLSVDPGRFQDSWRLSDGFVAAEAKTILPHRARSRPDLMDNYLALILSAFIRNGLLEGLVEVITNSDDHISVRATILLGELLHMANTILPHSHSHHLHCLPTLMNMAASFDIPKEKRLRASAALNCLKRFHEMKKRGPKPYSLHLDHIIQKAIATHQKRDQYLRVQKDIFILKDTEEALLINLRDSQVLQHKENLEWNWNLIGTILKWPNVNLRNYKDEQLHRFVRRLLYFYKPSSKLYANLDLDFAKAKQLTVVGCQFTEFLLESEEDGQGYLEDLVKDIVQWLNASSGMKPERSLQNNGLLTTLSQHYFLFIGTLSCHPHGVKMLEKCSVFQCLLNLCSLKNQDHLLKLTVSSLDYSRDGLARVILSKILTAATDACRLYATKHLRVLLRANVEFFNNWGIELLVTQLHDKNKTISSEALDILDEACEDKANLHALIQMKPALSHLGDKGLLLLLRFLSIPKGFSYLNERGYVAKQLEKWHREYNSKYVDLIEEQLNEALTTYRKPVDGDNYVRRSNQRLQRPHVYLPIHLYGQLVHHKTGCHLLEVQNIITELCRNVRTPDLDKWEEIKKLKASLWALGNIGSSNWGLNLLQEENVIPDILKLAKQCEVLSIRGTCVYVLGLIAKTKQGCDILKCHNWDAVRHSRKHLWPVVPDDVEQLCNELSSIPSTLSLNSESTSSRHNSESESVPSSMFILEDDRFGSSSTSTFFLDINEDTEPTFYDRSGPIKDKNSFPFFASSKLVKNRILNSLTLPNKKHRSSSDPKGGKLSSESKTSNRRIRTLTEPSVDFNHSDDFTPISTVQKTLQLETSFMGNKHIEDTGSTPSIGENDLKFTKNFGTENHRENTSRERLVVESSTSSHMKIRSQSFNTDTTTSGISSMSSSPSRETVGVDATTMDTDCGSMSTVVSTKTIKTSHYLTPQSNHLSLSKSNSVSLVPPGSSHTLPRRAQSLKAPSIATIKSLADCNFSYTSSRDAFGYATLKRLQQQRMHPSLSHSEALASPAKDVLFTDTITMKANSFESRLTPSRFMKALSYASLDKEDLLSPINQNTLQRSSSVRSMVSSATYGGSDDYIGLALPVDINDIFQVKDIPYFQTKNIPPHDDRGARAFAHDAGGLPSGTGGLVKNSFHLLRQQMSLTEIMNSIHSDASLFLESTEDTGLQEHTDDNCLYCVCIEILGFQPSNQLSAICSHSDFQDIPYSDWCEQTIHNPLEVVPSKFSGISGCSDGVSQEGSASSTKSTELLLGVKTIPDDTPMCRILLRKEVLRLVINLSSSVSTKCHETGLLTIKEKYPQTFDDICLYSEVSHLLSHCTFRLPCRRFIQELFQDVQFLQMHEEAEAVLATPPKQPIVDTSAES
T2 sequence (Q9BPZ7 2-522 limits assumed, other chains not shown): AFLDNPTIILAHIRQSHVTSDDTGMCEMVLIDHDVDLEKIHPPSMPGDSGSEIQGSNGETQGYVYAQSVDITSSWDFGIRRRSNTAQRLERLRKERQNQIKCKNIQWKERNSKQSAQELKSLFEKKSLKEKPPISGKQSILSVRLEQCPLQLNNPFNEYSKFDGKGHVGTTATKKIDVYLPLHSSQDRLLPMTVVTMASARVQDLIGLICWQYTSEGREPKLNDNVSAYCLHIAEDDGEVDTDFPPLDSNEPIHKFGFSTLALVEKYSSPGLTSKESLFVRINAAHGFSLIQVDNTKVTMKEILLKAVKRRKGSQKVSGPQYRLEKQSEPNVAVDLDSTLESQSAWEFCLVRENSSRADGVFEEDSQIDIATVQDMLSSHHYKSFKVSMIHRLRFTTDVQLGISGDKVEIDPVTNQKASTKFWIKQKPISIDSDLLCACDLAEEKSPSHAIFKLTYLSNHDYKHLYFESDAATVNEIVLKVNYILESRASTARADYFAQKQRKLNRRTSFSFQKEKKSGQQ
T2 sequence (Q9BVC4 whole entry, other chains not shown): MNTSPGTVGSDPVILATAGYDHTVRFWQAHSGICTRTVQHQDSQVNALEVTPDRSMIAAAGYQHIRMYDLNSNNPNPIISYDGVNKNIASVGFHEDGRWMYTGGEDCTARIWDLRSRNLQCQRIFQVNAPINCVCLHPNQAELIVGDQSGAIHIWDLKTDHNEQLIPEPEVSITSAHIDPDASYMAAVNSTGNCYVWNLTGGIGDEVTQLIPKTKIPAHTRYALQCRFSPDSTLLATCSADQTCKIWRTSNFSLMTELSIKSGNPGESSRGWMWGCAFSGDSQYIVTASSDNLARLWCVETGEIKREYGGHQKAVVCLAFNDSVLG

SMILES | IC50 (mTORC1 [1]) [nM] | IC50 (mTORC2 [2]) [µM] | IC50 (mTORC1 [4]) [nM] | IC50 (mTORC2 [5]) [nM] | further results
Cc1cc(C)c(C(=O)N2CCN(c3ccc(F)cn3)[C@H](CO)C2)c(C)c1NC1CCN(c2cccnn2)CC1 | 10 | > 10 | – | – | –
Cc1cc(C)c(C(=O)N2CCN(c3cccc(F)c3[S@](C)(=N)=O)CC2)cc1NC1CCN(c2ccccc2C#N)CC1 | 10 | > 10 | – | – | –
Cc1cc(C)c(C(=O)N2CCN(c3ncccc3F)[C@H](CO)C2)cc1NC1CCN(c2ccccc2C#N)CC1 | 10 | > 10 | – | – | –
Cc1c(CN2CCN(c3ccccc3C#N)CC2)cc(C(=O)N2CCN(c3oc(C4CC4)nc3C#N)CC2)n1C | 10 | > 10 | – | – | –
CO[C@@H]1C[C@H](C[C@@H](C)[C@@H]2CC(=O)[C@H](C)/C=C(\C)[C@@H](O)[C@@H](OC)C(=O)[C@H](C)C[C@H](C)/C=C/C=C/C=C(\C)C(N3CCS3(=O)=O)C[C@@H]3CC[C@@H](C)[C@@](O)(O3)C(=O)C(=O)N3CCCC[C@H]3C(=O)O2)CC[C@@H]1n1cnnn1 (some centres not stated) | – | – | – | – | IC50 ([3]; Mus musculus, MEF, 2 h): 0.374 nM
Cn1c(C(=O)N2CCN(c3ccccc3)CC2)cc(CN2CCN(c3ccccc3C#N)CC2)c1C#N | 10 | > 10 | – | – | –
CO[C@@H]1C[C@H](C[C@@H](C)[C@@H]2CC(=O)[C@H](C)/C=C(\C)[C@@H](O)[C@@H](OC)C(=O)[C@H](C)C[C@H](C)/C=C/C=C/C=C(\C)[C@H](N3CCCS3(=O)=O)C[C@@H]3CC[C@@H](C)[C@@](O)(O3)C(=O)C(=O)N3CCCC[C@H]3C(=O)O2)CC[C@H]1O | – | – | – | – | IC50 ([3]; Mus musculus, MEF, 2 h): 0.274 nM
Nc1ncc(-c2nc(N3CCOCC3)c3c(n2)N2CCOC[C@@H]2C3)cn1 | – | – | 98 | 154 | –
Nc1ncc(-c2nc(N3CCOCC3)nc3c2C[C@H]2COCCN32)cn1 | – | – | 594 | 1260 | –
CNC(=O)c1cc(F)ccc1N1CCN(C(=O)c2cc(NC3CCN(c4ccccc4C#N)CC3)c(C)cc2C)CC1 | 10 | > 10 | – | – | –
CO[C@@H]1C[C@H](C[C@@H](C)[C@@H]2CC(=O)[C@H](C)/C=C(\C)[C@@H](O)[C@@H](OC)C(=O)[C@H](C)C[C@H](C)/C=C/C=C/C=C(\C)C(N3CCS3(=O)=O)C[C@@H]3CC[C@@H](C)[C@@](O)(O3)C(=O)C(=O)N3CCCC[C@H]3C(=O)O2)CC[C@H]1O (some centres not stated) | – | – | – | – | IC50 ([3]; Mus musculus, MEF, 2 h): 0.17 nM
Cc1c(CN2C3CCC2CN(c2ccccc2C#N)C3)cc(C(=O)N2CCN(c3ccccn3)CC2)n1C | 10 | > 10 | – | – | –
Cc1cc(C)c(C(=O)N2CCN(c3cncc4cn[nH]c34)CC2)nc1NC1CCN(c2ccccc2C#N)CC1 | 10 | > 10 | – | – | –
Cc1cc(C)c(C(=O)N2CCN(c3ncccc3S(N)(=O)=O)CC2)nc1NC1CCN(c2ccccc2C#N)CC1 | 10 | > 10 | – | – | –
CO[C@@H]1C[C@H](C[C@@H](C)[C@@H]2CC(=O)[C@H](C)/C=C(\C)[C@@H](O)[C@@H](OC)C(=O)[C@H](C)C[C@H](C)/C=C/C=C/C=C(\C)[C@@H](OCCSCCSCCO)C[C@@H]3CC[C@@H](C)[C@@](O)(O3)C(=O)C(=O)N3CCCC[C@H]3C(=O)O2)CC[C@H]1O | – | – | < 0.1 | ≥ 100 | –
CO[C@@H]1C[C@H](C[C@@H](C)[C@@H]2CC(=O)[C@H](C)/C=C(\C)[C@@H](O)[C@@H](OC)C(=O)[C@H](C)C[C@H](C)/C=C/C=C/C=C(\C)C(N3CCCS3(=O)=O)C[C@@H]3CC[C@@H](C)[C@@](O)(O3)C(=O)C(=O)N3CCCC[C@H]3C(=O)O2)CC[C@H]1O (some centres not stated) | – | – | – | – | IC50 ([3]; Mus musculus, MEF, 2 h): 1.36 nM
C[C@H]1COCCN1c1nc(-c2cnc(N)nc2C(F)F)nc(N2CCOCC2)n1 | – | – | 72 | 35 | –
CO[C@@H]1C[C@H](C[C@@H](C)[C@@H]2CC(=O)[C@H](C)/C=C(\C)[C@@H](O)[C@@H](OC)C(=O)[C@H](C)C[C@H](C)/C=C/C=C/C=C(\C)[C@@H](OCCOCCOCCO)C[C@@H]3CC[C@@H](C)[C@@](O)(O3)C(=O)C(=O)N3CCCC[C@H]3C(=O)O2)CC[C@H]1O | – | – | < 0.1 | ≥ 100 | –
CO[C@@H]1C[C@H](C[C@@H](C)[C@@H]2CC(=O)[C@H](C)/C=C(\C)[C@@H](O)[C@@H](OC)C(=O)[C@H](C)C[C@H](C)/C=C/C=C/C=C(\C)C(N3CCS3(=O)=O)C[C@@H]3CC[C@@H](C)[C@@](O)(O3)C(=O)C(=O)N3CCCC[C@H]3C(=O)O2)CC[C@H]1OCCO (some centres not stated) | – | – | – | – | IC50 ([3]; Mus musculus, MEF, 2 h): 0.328 nM

SMILES | IC50 (mTORC1 [1]) [nM] | IC50 (mTORC2 [2]) [µM] | IC50 (mTORC1 [4]) [nM] | IC50 (mTORC2 [5]) [nM] | further results
CO[C@H]1C[C@@H]2CC[C@@H](C)[C@@](O)(O2)C(=O)C(=O)N2CCCC[C@H]2C(=O)O[C@H]([C@H](C)C[C@@H]2CC[C@@H](OCCO)[C@H](OC)C2)CC(=O)[C@H](C)/C=C(\C)[C@@H](O)[C@@H](OC)C(=O)[C@H](C)C[C@H](C)/C=C/C=C/C=C/1C [EVEROLIMUS] | – | – | 0.05 | – | –
Nc1ncc(-c2nc(N3C4CCC3COC4)nc(N3C4COCC3COC4)n2)c(C(F)F)n1 | – | – | 79 | 219 | –
CO[C@@H]1C[C@H](C[C@@H](C)[C@@H]2CC(=O)[C@H](C)/C=C(\C)[C@@H](O)[C@@H](OC)C(=O)[C@H](C)C[C@H](C)/C=C/C=C/C=C(\C)[C@@H](OCCOCCOCCOCCOCCOCCOCCOCCO)C[C@@H]3CC[C@@H](C)[C@@](O)(O3)C(=O)C(=O)N3CCCC[C@H]3C(=O)O2)CC[C@H]1O | – | – | < 0.1 | ≥ 100 | –
Cc1c(CN2CCN(c3ccccc3Cl)CC2)cc(C(=O)N2CCN(c3cccc(F)c3C#N)C[C@@H]2C)n1C | 10 | > 10 | – | – | –
CC1(C)COCCN1c1nc(-c2cnc(N)cc2C(F)F)nc(N2CCOCC2(C)C)n1 | – | – | 47 | 106 | –
C[C@H]1COCCN1c1nc(-c2cnc(N)cc2C(F)F)nc(N2CCOCC2)n1 | – | – | 68 | 74 | –
Cc1cc(C)c(C(=O)N2CCN(c3ccccn3)[C@H](CO)C2)cc1NC1CCN(c2ccccc2OC(F)F)CC1 | 10 | > 10 | – | – | –
Cc1cc(C)c(C(=O)N2CCN(c3cccnc3S(N)(=O)=O)CC2)c(C)c1NC1CCN(c2ccccc2C#N)CC1 | 10 | > 10 | – | – | –
Cn1c(C(=O)N2CCN(c3ccccc3)CC2)cc(CN2CCN(c3ccccc3Cl)CC2)c1C#N | 10 | > 10 | – | – | –
Nc1ncc(-c2nc(N3CCOCC3)c3c(n2)N2CCOC[C@H]2C3)cn1 | – | – | 65 | 145 | –
CC1(C)COCCN1c1nc(-c2cnc(N)cc2C(F)F)nc(N2CCOCC2)n1 | – | – | 45 | 54 | –
CO[C@@H]1C[C@H](C[C@@H](C)[C@@H]2CC(=O)[C@H](C)/C=C(\C)[C@@H](O)[C@@H](OC)C(=O)[C@H](C)C[C@H](C)/C=C/C=C/C=C(\C)[C@@H](OCC3COCCOCCOCCO3)C[C@@H]3CC[C@@H](C)[C@@](O)(O3)C(=O)C(=O)N3CCCC[C@H]3C(=O)O2)CC[C@H]1O (some centres not stated) | – | – | < 0.1 | ≥ 100 | –
Cc1cc(C)c(C(=O)N2CCN(c3ccccc3)C(C(N)=O)C2)c(C)c1NC1CCN(c2ccc(F)cc2C#N)CC1 (configuration not stated) | 10 | > 10 | – | – | –
Nc1ncc(-c2nc(N3CCOCC3)nc3c2C[C@@H]2COCCN32)cn1 | – | – | 574 | 575 | –
Cc1c(CN2CCN(c3ncccc3Cl)CC2)cc(C(=O)N2CCN(c3cc(F)c(F)cc3C#N)CC2)n1C | 10 | > 10 | – | – | –
CO[C@@H]1C[C@H](C[C@@H](C)[C@@H]2CC(=O)[C@H](C)/C=C(\C)[C@@H](O)[C@@H](OC)C(=O)[C@H](C)C[C@H](C)/C=C/C=C/C=C(\C)C(N3CCCCS3(=O)=O)C[C@@H]3CC[C@@H](C)[C@@](O)(O3)C(=O)C(=O)N3CCCC[C@H]3C(=O)O2)CC[C@H]1O (some centres not stated) | – | – | – | – | IC50 ([3]; Mus musculus, MEF, 2 h): 3.4 nM
CO[C@@H]1C[C@H](C[C@@H](C)[C@@H]2CC(=O)[C@H](C)/C=C(\C)[C@@H](O)[C@@H](OC)C(=O)[C@H](C)C[C@H](C)/C=C/C=C/C=C(\C)C(N3CCCS3(=O)=O)C[C@@H]3CC[C@@H](C)[C@@](O)(O3)C(=O)C(=O)N3CCCC[C@H]3C(=O)O2)CC[C@H]1OCCO (stereo in doubt; 13) | – | – | – | – | IC50 ([3]; mef): 8.3 nM
CO[C@@H]1C[C@H](C[C@@H](C)[C@@H]2CC(=O)[C@H](C)/C=C(\C)[C@@H](O)[C@@H](OC)C(=O)[C@H](C)C[C@H](C)/C=C/C=C/C=C(\C)[C@@H](OCCOCCO)C[C@@H]3CC[C@@H](C)[C@@](O)(O3)C(=O)C(=O)N3CCCC[C@H]3C(=O)O2)CC[C@H]1O | – | – | < 0.1 | ≥ 100 | –
CO[C@@H]1C[C@H](C[C@@H](C)[C@@H]2CC(=O)[C@H](C)/C=C(\C)[C@@H](O)[C@@H](OC)C(=O)[C@H](C)C[C@H](C)/C=C/C=C/C=C(\C)C(N3CCCS3(=O)=O)C[C@@H]3CC[C@@H](C)[C@@](O)(O3)C(=O)C(=O)N3CCCC[C@H]3C(=O)O2)CC[C@H]1OCCO (stereo in doubt; 12) | – | – | – | – | IC50 ([3]; mef): 22.5 nM
